Source: publication PMC5080985 (Journal of medicinal chemistry, 2015)
Blank lines part the entries; values can stand above or below the compound they belong to.

Tests used:
KDM4C [1] = target: T1, KDM4C (Homo sapiens, UniProt Q9H3R0); assay: KDM4C time-resolved FRET; assay type: biochemical
T1 sequence (Q9H3R0 1-352): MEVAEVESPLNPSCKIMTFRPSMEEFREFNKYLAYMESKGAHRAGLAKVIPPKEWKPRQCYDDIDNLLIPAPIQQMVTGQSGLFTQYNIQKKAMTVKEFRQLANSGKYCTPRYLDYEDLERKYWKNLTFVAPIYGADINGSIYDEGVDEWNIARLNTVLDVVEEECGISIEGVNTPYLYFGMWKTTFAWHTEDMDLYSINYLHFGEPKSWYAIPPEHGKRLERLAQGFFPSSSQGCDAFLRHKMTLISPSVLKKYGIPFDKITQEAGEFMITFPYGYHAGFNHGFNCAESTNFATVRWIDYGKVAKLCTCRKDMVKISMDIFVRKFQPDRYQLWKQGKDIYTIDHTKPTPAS

AmpC β-lactamase = AmpC β-lactamase (Escherichia coli, UniProt P00811); assay: Controls for colloidal aggregation; settings: AmpC β-lactamase counterscreen, particle formation by DLS
FIH = FIH (Homo sapiens, UniProt Q9NWT6); assay: MALDI counterscreen, FIH; assay type: biochemical
KDM4C [2] = target: T2, KDM4C (Homo sapiens, UniProt Q9H3R0); assay: MALDI assay, KDM4C; assay type: biochemical
T2 sequence (Q9H3R0 1-1056): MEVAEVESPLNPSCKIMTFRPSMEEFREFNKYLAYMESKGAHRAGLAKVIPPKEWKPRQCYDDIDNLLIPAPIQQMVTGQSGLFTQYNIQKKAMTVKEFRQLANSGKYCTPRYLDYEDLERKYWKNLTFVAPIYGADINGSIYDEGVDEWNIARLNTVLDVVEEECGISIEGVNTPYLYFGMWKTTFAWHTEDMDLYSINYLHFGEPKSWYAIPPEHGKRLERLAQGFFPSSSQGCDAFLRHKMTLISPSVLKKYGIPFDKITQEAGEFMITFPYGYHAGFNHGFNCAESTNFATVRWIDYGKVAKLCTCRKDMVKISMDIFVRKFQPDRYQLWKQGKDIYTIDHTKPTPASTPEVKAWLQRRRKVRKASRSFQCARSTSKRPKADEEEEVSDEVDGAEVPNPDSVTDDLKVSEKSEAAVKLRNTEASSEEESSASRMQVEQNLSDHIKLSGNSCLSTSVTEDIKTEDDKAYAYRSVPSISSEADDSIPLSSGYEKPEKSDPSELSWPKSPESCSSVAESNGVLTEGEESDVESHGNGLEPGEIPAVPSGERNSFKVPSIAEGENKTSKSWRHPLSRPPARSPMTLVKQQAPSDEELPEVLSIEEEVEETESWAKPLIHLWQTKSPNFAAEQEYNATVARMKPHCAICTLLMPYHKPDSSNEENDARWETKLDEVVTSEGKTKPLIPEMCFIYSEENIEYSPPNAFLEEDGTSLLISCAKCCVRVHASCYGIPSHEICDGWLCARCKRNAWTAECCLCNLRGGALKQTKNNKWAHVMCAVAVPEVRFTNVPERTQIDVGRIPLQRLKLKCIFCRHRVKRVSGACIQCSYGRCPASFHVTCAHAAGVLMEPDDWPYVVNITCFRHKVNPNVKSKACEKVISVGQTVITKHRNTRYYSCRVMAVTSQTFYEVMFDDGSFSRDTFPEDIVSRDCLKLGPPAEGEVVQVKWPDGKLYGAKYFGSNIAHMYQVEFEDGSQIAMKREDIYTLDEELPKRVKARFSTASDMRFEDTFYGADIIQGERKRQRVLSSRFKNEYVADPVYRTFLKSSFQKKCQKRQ

KDM4C [3] = target: T2, KDM4C; assay: Thermal shift assay; assay type: binding
KDM6B (JMJD3) = KDM6B (JMJD3) (Homo sapiens, UniProt O15054); assay: AlphaScreen counterscreen, KDM6B; assay type: biochemical
KDM2A (FBXL11) = target: T3, KDM2A (FBXL11) (Homo sapiens, UniProt Q9Y2K7); assay: AlphaScreen counterscreen, KDM2A; assay type: biochemical
T3 sequence (Q9Y2K7 1-1162): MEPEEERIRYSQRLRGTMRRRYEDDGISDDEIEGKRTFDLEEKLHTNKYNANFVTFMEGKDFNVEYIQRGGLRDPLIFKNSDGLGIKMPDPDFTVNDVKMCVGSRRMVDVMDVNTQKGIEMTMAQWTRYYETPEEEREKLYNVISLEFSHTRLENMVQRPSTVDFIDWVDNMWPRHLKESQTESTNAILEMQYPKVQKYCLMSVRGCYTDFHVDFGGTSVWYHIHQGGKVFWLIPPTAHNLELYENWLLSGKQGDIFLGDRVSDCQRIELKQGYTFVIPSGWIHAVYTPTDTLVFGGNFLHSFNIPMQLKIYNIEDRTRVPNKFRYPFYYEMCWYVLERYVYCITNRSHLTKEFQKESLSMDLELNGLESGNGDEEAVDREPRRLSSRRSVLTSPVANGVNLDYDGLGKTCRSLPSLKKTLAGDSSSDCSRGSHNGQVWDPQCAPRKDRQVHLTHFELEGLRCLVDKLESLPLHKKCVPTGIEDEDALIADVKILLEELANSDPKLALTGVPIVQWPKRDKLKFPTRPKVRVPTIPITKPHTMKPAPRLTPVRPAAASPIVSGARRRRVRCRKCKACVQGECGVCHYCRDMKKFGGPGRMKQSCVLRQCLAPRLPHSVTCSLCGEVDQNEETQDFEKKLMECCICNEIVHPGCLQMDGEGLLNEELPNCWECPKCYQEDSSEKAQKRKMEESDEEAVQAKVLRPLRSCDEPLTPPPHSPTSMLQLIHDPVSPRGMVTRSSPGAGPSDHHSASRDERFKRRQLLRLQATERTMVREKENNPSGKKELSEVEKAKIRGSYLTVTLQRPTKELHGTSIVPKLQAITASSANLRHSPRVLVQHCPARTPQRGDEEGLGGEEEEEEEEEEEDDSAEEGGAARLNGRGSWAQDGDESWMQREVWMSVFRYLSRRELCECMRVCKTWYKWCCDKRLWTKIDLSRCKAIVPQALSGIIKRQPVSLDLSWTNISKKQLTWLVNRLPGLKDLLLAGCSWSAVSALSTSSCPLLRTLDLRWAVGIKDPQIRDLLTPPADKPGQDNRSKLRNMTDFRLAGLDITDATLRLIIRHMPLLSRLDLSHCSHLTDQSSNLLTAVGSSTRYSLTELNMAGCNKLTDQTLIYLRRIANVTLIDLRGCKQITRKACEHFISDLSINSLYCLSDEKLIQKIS

KDM5B (JARID1B, PLU-1) = KDM5B (JARID1B, PLU-1) (Homo sapiens, UniProt Q9UGL1); assay: AlphaScreen counterscreen, KDM5B; assay type: biochemical
Chain of KDM5B (JARID1B, PLU-1) (Q9UGL1 whole entry, species assumed): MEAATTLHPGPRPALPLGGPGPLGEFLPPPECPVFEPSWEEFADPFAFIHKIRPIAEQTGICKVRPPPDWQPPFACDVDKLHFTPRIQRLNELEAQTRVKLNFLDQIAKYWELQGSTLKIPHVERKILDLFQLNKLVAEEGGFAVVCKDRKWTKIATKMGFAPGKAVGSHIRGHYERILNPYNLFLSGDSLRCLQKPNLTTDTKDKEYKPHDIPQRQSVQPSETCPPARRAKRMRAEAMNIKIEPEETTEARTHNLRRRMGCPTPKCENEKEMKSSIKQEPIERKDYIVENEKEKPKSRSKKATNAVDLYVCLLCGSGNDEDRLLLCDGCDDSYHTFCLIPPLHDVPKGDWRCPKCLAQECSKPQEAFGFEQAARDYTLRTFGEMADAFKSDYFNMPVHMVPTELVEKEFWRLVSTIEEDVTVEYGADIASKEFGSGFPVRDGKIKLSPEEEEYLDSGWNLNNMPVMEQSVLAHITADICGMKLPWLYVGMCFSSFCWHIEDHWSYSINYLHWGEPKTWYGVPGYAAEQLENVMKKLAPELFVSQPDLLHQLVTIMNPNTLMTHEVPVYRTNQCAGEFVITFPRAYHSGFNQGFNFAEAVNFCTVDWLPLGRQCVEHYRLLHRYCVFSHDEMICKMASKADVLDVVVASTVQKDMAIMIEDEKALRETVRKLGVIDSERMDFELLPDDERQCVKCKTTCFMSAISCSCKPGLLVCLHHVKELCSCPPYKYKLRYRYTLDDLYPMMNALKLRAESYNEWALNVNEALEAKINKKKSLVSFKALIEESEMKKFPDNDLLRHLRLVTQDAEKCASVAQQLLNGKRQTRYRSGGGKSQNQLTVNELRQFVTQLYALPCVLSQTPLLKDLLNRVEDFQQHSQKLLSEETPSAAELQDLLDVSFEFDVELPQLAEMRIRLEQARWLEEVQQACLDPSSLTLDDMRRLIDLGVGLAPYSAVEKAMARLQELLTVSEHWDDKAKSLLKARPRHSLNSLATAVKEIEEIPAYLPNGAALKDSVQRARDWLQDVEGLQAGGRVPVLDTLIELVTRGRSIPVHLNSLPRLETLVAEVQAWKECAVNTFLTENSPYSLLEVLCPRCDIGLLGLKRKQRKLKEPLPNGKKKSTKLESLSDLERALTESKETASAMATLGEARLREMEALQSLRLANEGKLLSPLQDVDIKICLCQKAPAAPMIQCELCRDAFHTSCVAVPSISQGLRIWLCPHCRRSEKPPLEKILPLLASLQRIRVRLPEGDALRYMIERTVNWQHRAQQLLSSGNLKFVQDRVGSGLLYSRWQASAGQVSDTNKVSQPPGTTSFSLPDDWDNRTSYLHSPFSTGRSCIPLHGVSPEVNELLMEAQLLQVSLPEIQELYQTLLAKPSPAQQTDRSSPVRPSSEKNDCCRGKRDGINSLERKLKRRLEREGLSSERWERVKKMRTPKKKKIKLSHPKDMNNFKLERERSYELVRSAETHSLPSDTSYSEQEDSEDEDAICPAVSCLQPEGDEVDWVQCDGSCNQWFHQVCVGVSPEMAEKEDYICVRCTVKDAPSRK

Chain of FIH (Q9NWT6 whole entry): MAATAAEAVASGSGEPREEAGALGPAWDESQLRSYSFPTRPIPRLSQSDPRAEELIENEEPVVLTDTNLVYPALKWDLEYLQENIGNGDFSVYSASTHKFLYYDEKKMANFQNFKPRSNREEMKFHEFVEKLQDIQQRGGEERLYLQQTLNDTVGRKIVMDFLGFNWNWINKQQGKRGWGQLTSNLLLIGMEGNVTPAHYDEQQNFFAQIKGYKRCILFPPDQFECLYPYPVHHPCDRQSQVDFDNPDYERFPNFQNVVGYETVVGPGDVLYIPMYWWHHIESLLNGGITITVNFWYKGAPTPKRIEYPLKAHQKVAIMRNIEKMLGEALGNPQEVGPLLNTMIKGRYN
Chain of AmpC β-lactamase (P00811 20-377): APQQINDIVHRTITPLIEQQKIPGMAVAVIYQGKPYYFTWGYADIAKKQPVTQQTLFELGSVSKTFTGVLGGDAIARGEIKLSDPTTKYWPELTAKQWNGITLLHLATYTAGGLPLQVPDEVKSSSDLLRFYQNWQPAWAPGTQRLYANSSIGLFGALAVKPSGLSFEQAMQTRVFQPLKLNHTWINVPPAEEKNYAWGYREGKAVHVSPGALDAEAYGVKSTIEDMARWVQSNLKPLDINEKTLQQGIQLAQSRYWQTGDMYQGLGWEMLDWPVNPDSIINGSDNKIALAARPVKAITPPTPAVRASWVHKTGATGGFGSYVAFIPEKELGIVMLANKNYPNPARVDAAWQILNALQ
Chain of KDM6B (JMJD3) (O15054 whole entry, species assumed): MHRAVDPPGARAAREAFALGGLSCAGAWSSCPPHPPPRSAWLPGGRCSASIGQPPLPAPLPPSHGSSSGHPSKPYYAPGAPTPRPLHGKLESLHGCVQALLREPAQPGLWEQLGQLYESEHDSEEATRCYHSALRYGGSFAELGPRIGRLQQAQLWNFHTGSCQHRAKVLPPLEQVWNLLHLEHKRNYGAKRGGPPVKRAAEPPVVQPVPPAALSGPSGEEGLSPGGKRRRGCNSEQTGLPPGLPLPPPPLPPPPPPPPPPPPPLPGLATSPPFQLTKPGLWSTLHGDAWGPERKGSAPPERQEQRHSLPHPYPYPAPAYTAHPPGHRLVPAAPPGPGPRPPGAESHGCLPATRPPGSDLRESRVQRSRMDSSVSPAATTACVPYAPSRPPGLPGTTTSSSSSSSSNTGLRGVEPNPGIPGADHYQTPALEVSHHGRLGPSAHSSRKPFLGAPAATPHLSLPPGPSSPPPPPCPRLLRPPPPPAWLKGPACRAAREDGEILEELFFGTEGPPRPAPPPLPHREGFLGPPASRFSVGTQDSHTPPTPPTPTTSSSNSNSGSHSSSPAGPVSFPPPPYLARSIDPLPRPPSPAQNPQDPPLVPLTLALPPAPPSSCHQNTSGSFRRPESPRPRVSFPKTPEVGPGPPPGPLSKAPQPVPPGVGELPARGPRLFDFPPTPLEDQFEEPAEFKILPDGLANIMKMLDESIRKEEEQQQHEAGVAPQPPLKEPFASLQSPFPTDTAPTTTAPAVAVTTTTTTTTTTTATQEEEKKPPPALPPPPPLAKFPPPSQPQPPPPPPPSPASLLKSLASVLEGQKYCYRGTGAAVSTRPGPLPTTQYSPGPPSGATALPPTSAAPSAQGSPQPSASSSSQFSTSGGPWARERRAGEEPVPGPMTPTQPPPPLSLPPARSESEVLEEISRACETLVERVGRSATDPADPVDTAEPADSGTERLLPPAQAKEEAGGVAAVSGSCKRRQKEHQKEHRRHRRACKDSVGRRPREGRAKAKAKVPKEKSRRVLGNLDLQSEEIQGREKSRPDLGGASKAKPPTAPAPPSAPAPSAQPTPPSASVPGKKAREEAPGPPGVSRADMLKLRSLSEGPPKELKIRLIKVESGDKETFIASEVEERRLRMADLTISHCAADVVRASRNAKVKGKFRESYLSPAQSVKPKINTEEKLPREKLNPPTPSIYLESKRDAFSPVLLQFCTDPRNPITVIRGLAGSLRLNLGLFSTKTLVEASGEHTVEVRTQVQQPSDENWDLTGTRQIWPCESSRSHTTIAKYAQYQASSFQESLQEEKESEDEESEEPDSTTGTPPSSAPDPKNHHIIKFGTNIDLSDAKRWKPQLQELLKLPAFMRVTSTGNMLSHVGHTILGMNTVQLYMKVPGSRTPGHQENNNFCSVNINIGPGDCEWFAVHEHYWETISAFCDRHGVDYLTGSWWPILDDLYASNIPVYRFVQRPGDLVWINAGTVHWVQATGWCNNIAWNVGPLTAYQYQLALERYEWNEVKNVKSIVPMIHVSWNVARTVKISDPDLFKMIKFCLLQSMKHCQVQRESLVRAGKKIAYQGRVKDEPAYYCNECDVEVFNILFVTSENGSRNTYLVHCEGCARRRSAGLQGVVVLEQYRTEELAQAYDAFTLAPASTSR

IC50(μM) 2μM αKG (KDM4C [1]; KDM4C, TR-FRET, 2 μM α-KG): no inhibition
Compound: CC(=O)Nc1ccc(O)c(C(=O)O)c1 [N-acetyl-5-aminosalicylic acid]

Compound: COCC(=O)Nc1ccc(O)c(C(=O)O)c1 [Compound 5]
nonspecific inhibition / colloidal aggregation (AmpC β-lactamase): neither of the two inhibitors acted as aggregators in a relevant concentration range

Compound: Nc1ccc(O)c(-c2cc(C(=O)O)ccn2)c1 [Compound 30, 2-(5-Amino-2-hydroxyphenyl)-isonicotinic Acid]
IC50 (FIH): 828 µM
fold selectivity over KDM4C, FIH (FIH; MALDI, 100 μM α-KG): 6 fold
IC50 (KDM4C [2]): 135 µM

Compound: Cn1nccc1CNc1ccc(O)c(C(=O)O)c1 [Compound 4]
nonspecific inhibition / colloidal aggregation (AmpC β-lactamase): neither of the two inhibitors acted as aggregators in a relevant concentration range

Compound: COc1cccc(CC(=O)Nc2ccc(O)c(-c3cc(C(=O)O)ccn3)c2)c1 [Compound 40]
fold selectivity over KDM4C, FIH (FIH; MALDI, 100 μM α-KG): > 68 fold

Compound: Cc1ccccc1CNc1ccc(O)c(C(=O)O)c1 [Compound 20]
nonspecific inhibition / colloidal aggregation (AmpC β-lactamase): did not exhibit nonspecific inhibition
stabilization of the enzyme in thermal shift assays (KDM4C [3]): stabilized the enzyme in thermal shift assays

Compound: CC(=O)Nc1ccc(O)c(-c2cc(C(=O)O)ccn2)c1 [Compound 44]
fold selectivity over KDM4C, FIH (FIH; MALDI, 100 μM α-KG): > 8 fold
IC50 FIH, MALDI Assays (FIH; MALDI, 100 μM α-KG, >500 = no inhibition at 500 μM inhibitor): no inhibition
fold selectivity over KDM4C, KDM6B (KDM6B (JMJD3)): > 6 fold
fold selectivity over KDM4C, KDM2A (KDM2A (FBXL11)): > 6 fold

Compound: O=C(O)c1ccnc(-c2cc(NC(=O)c3ccc(O)cc3)ccc2O)c1 [Compound 35]
fold selectivity over KDM4C, FIH (FIH; MALDI, 100 μM α-KG): > 85 fold
fold selectivity over KDM4C, KDM5B (KDM5B (JARID1B, PLU-1)): Ml

Compound: COCC(=O)Nc1ccc(O)c(-c2cc(C(=O)O)ccn2)c1 [Compound 42]
fold selectivity over KDM4C, FIH (FIH; MALDI, 100 μM α-KG): > 11 fold
fold improvement in potency over the parent 5-aminosalicylate fragment (KDM4C [1]; TR-FRET IC50 at 2 μM α-KG, 42 vs 5, 21 vs 4): ~700 fold
